# Source: US20250296938A1, “Compounds that Interact with the Ras Superfamily for the Treatment of Cancers, Inflammatory Diseases, Rasopathies, and Fibrotic Disease” (SHY Therapeutics, LLC, priority 2018, published 2025)
# Where two headings read alike, the source gives them in different places.
# Assays:
# HRas wild type = test: Ras GTP binding domain inhibition assay (Cy3-GTP/Cy5-GTP competition); set-up: species or system human; details: at 20 μM; for HRAS wild type + SOS: % inh.: with SOS; for HRas wild type % inh.: without SOS
# Summary of the method: (§1)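 Ni-plate immobilised His-Ras, overnight 4 °C; cpd 20 μM (or dilution series for IC50), 1% DMSO, 3 h RT; optional His-Sos […] last hour; Cy3- or Cy5-GTP 100 nM, 45 min RT; 3× wash; bound fluorescence read.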
# KRas G12D mutant = target: T1, KRas G12D mutant (Homo sapiens, UniProt P01116, G12D); test: as above; details: at 20 μM
# T1 construct: fused on or other part: His tag, used for capture on nickel-coated plates
# Summary of the method: as §1
# Rac-1 = Rac-1 (Homo sapiens, UniProt P63000); test: as above
# Summary of the method: (§2)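 First, His-tagged protein is coated on nickel wells overnight at 4 °C. Next, compound (20 μM single point or serial dilution) is added for 3 h at room temperature, with or without Sos exchange factor in the last hour. Finally, 100 nM labelled GTP binds for 45 min and retained signal is measured.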
# Rho-A = Rho-A (Homo sapiens, UniProt P61586); test: as above; details: for Rho-A + SOS: % inh. / Rho-A: % inh.: at 20 μM
# Summary of the method: as §2
# MAPK phosphorylation [1] = test: MAPK cell-based phosphorylation assay (ELISA or Western), PANC-1; details: Homo sapiens; 10 μM, 6 hours, EGF stimulation, PANC-1
# Summary of the method: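 Serum-starved (0.5% FBS overnight) cells given compound at 10 μM or serial dilutions (0.3% DMSO) for 6 h at 37 °C, then 1.5 ng/mL EGF for 15 min. Phospho-MAPK read by fixed-cell ELISA (fluorescence, 595 nm) or by Western blot of lysates with anti-phospho-p44/42 (Thr202/Tyr204).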
# MAPK phosphorylation [2] = test: Western MAPK cell-based phosphorylation assay, BxPC3; details: Homo sapiens, BXPC-3, 10 μM, 6 hours, EGF stimulation
# Experimental: (§3) Cell lines: Human NSCLC cells NCI-H1975 and NCI-H1299, and tumor-derived pancreatic cancer cell lines Panc-1, MIA-PaCa-2, and BxPC3, were all purchased from American Type Culture Collection and grown in complete RPMI medium (BxPC3, NCI-H1975 and NCI-H1299) or DMEM-High Glucose (Panc1 and MIA-PaCa-2), supplemented with penicillin (100 U/mL), streptomycin (100 μg/mL), and 10% heat-inactivated FBS at 37° C. in a humidified incubator with 5% CO2.
# (§4) Method: Cells were plated at 350000 cells/well density in a 12-well plate, allowed 3 hours to adhere to the plate, then starved in the appropriate medium in the presence of 0.5% FBS overnight. The small molecules to be tested were added to the cells in the final concentration of 10 μM in the presence of 0.3% DMSO for 6 hours incubation at 37° C. For IC50 value determination, serial dilutions of compounds were added to cells under the same conditions. Next, cells were stimulated with 1.5 ng/ml EGF for 15 minutes then cells were lysed with lysis buffer containing 1% Triton X-100, EDTA, and Halt™ Protease & Phosphatase Inhibitor Cocktail (Thermo Scientific). Protein concentration was assessed by BCA protein assay (Thermo Scientific). Phosphorylation level of MAPK was determined by western blot.
# (§5) Western blot protocol: Equal amounts of protein (15-50 μg) were separated by SDS-PAGE and transferred to nitrocellulose membranes (Invitrogen by Thermo Fisher Scientific). The membrane was stained with Ponceau S Stain (Boston BioProducts) to verify uniform protein loading. Membranes were blocked with 10% milk and phosphorylation levels of MAPK were assessed by incubating overnight at 4° C. with anti-phospho-p44/42 (Thr202/Tyr204) antibody (Cell Signaling) followed by HRP-conjugated secondary antibody (Jackson Immunoresearch, West Grove, PA). Bands were incubated in Amersham ECL Prime Western Blotting Detection Reagent (GE Healthcare) and visualized using the ChemiDoc MP imaging system (Bio-Rad).
# MAPK phosphorylation [3] = test: Western MAPK cell-based phosphorylation assay, MIA PaCa-2; details: Homo sapiens, 10 μM, 6 hours, EGF stimulation
# Experimental: as §3, §4, §5
# AKT phosphorylation = test: Western AKT cell-based phosphorylation assay, PANC-1; details: Homo sapiens, 6 hours, EGF stimulation, PANC-1
# Summary of the method: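 PANC-1 cells, serum-starved overnight in 0.5% FBS, were treated with compound at 10 μM (0.3% DMSO) for 6 h at 37 °C and then stimulated with 1.5 ng/ml EGF for 15 min. Lysates (15–50 μg) were immunoblotted for phospho-Akt Ser473, with ECL detection.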
# [4] = system: MIA PaCa-2 pancreatic cancer cell line; test: Cell proliferation assay (DAPI); format: cell-based; details: Homo sapiens, MIA PaCa-2; for inhibition at 10 µM: 2-4 days, read-out: % Inhibition of cell proliferation, MIA PaCa-2 % inh
# Summary of the method: (§6)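 After 2–4 days' exposure at 37 °C to 10 µM compound or serial dilutions (IC50), in 0.3% DMSO with 10% FBS, cells were acetone–methanol fixed and DAPI-stained for total DNA, read at 358 nm ex/461 nm em. Media: RPMI for NCI-H1975 and BxPC3, DMEM-high glucose for PANC-1 and MIA PaCa-2.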
# [5] = system: NCI H1975 non-small-cell lung cancer cell line; test: Cell proliferation assay (DAPI); format: cell-based; details: Homo sapiens
# Summary of the method: as §6
# [6] = system: PANC-1 pancreatic cancer cell line; test: Cell proliferation assay (DAPI); format: cell-based; details: Homo sapiens
# Summary of the method: as §6
# [7] = with SOS, read-out: KRas G12D mutant + SOS: % inh.
# [8] = without SOS, read-out: KRas G12D mutant: % inh.
# [9] = with SOS, read-out: Rac-1 + SOS: % inh.
# [10] = without SOS, read-out: Rac-1: % inh.
# [11] = with SOS, read-out: Rho-A + SOS: % inh.
# [12] = without SOS, read-out: Rho-A: % inh.
HRAS wild type + SOS: % inh. (HRas wild type),HRas wild type % inh. (HRas wild type),inhibition at 20 µM (KRas G12D mutant; [7]),inhibition at 20 µM (KRas G12D mutant; [8]),inhibition at 20 µM (Rac-1; [9]),inhibition at 20 µM (Rac-1; [10]),inhibition at 20 µM (Rho-A; [11]),inhibition at 20 µM (Rho-A; [12]),Compound,also measured
D (76-100% inhibition),D (76-100% inhibition),51 to 75%,26 to 50%,,51 to 75%,,,COc1cccc(-c2sc3nc(-c4nccn4C)nc(NC4CCC(OC)C4)c3c2-c2ccccc2)c1F (centres unmarked) [drawing 1018],"Rac-1 + SOS: % inh. (Rac-1; at 20 μM, with SOS): C (51-75% inhibition); Rho-A + SOS: % inh. (Rho-A; with SOS): C (51-75% inhibition); Rho-A: % inh. (Rho-A; without SOS): C (51-75% inhibition)"
D (76-100% inhibition),B (26-50% inhibition),,,,,,,COc1cccc(-c2sc3nc(-c4nccn4C)nc(NC4CCC(OC)C4)c3c2-c2ccccc2)c1F (centres unmarked) [drawing 1020],"KRas G12D mutant + SOS: % inh. (KRas G12D mutant; with SOS): C (51-75% inhibition); KRas G12D mutant: % inh. (KRas G12D mutant; without SOS): B (26-50% inhibition); Rac-1 + SOS: % inh. (Rac-1; at 20 μM, with SOS): B (26-50% inhibition); Rac-1: % inh. (Rac-1; at 20 μM, without SOS): C (51-75% inhibition); Rho-A + SOS: % inh. (Rho-A; with SOS): A (1-25% inhibition); Rho-A: % inh. (Rho-A; without SOS): A (1-25% inhibition)"
D (76-100% inhibition),B (26-50% inhibition),26 to 50%,26 to 50%,51 to 75%,51 to 75%,1 to 25%,26 to 50%,COC1CCC(Nc2nc(-c3nccn3C)nc3sc(-c4cccc5[nH]ncc45)c(-c4ccccc4)c23)C1 (centres unmarked) [drawing 1023],
D (76-100% inhibition),B (26-50% inhibition),51 to 75%,26 to 50%,51 to 75%,51 to 75%,51 to 75%,51 to 75%,CN(C)CCOCCNc1nc(-c2nccn2C)nc2sc(-c3ccn(C)n3)c(-c3ccccc3)c12 [drawing 1042],

# More lines, now with the values behind:
Compound,HRAS wild type + SOS: % inh. (HRas wild type),HRas wild type % inh. (HRas wild type),inhibition at 20 µM (KRas G12D mutant; [7]),inhibition at 20 µM (KRas G12D mutant; [8]),inhibition at 20 µM (Rac-1; [9]),inhibition at 20 µM (Rac-1; [10]),inhibition at 20 µM (Rho-A; [11]),inhibition at 20 µM (Rho-A; [12]),also measured
Cn1ccc(-c2sc3nc(-c4nccn4C)nc(N[C@@H]4CC[C@H](O)C4)c3c2C2=CC=CCC=C2)n1 (racemic),A (1-25% inhibition),C (51-75% inhibition),0%,0%,1 to 25%,1 to 25%,1 to 25%,26 to 50%,
COCC(C)Nc1nc(-c2nccn2C)nc2sc(-c3ccccc3Cl)c(-c3cscn3)c12 (centres unmarked) [drawing 414],,,,,,,,,inhibition at 10 µM (MAPK phosphorylation [1]): 76 to 100%; inhibition at 10 µM (MAPK phosphorylation [2]): 26 to 50%; inhibition at 10 µM (MAPK phosphorylation [3]): 76 to 100%; inhibition at 10 µM (AKT phosphorylation): 0%
COCC(C)Nc1nc(-c2nccn2C)nc2sc(-c3cccc(OC)c3)c(-c3cscn3)c12 (centres unmarked) [drawing 416],,,,,,,,,inhibition at 10 µM (MAPK phosphorylation [1]): 76 to 100%; inhibition at 10 µM (MAPK phosphorylation [2]): 76 to 100%; inhibition at 10 µM (MAPK phosphorylation [3]): 26 to 50%; inhibition at 10 µM (AKT phosphorylation): 0%
COCCNc1nc(-c2nccn2C)nc2sc(-c3cc(OC)ccc3Cl)c(-c3ccc(OC)cc3)c12 [drawing 421],,,,,,,,,inhibition at 10 µM (MAPK phosphorylation [1]): 51 to 75%; inhibition at 10 µM (MAPK phosphorylation [2]): 0%; inhibition at 10 µM (MAPK phosphorylation [3]): 0%; inhibition at 10 µM (AKT phosphorylation): 0%
COCCNc1nc(-c2nccn2C)nc2sc(-c3cc(OC)ccc3Cl)c(-c3ccccc3)c12 [drawing 426],,,,,,,,,inhibition at 10 µM (MAPK phosphorylation [1]): 51 to 75%; inhibition at 10 µM (MAPK phosphorylation [2]): 26 to 50%; inhibition at 10 µM (MAPK phosphorylation [3]): 76 to 100%
COCCNc1nc(-c2nccn2C)nc2sc(-c3ccccc3Cl)c(-c3ccc(OC)cc3)c12 [drawing 560],,,,,,,,,IC50 [4]: > 1 µM; inhibition at 10 µM [4]: 76 to 100%; IC50 [5]: 0.75 to 1 µM
COCCNc1nc(-c2nccn2C)nc2sc(-c3cccc(OC)c3)c(-c3ccc(OC)cc3)c12 [drawing 561],,,,,,,,,IC50 [4]: > 1 µM; inhibition at 10 µM [4]: 76 to 100%; IC50 [5]: > 1 µM
COCCNc1nc(-c2cn(C)cn2)nc2sc(-c3ccccc3Cl)c(-c3ccc(OC)cc3)c12 [drawing 564],,,,,,,,,IC50 [4]: > 1 µM; inhibition at 10 µM [4]: 76 to 100%; IC50 [5]: > 1 µM
COCCNc1nc(-c2nccn2C)nc2sc(-c3cccc(OC)c3Cl)c(-c3ccccc3)c12 [drawing 567],,,,,,,,,IC50 [4]: 0.75 to 1 µM; inhibition at 10 µM [4]: 76 to 100%; IC50 [5]: 0.75 to 1 µM; IC50 [6]: 0.75 to 1 µM
CO[C@H]1C[C@@H](Nc2nc(-c3ccccn3)nc3sccc23)C1 [drawing 1037],D (76-100% inhibition),C (51-75% inhibition),51 to 75%,51 to 75%,76 to 100%,76 to 100%,51 to 75%,76 to 100%,
CO[C@H]1C[C@@H](Nc2nc(-c3nccn3C)nc3sccc23)C1 [drawing 1038],D (76-100% inhibition),C (51-75% inhibition),76 to 100%,76 to 100%,76 to 100%,76 to 100%,26 to 50%,76 to 100%,
CO[C@H]1C[C@@H](Nc2nc(-c3nccn3C)nc3sc(-c4ccn(C)n4)c(-c4ccccc4)c23)C1.Cl [drawing 1040],D (76-100% inhibition),B (26-50% inhibition),51 to 75%,26 to 50%,76 to 100%,51 to 75%,51 to 75%,51 to 75%,
CO[C@H]1C[C@H](Nc2nc(-c3nccn3C)nc3sc(-c4ccn(C)n4)c(-c4ccccc4)c23)C1 [drawing 1041],D (76-100% inhibition),B (26-50% inhibition),51 to 75%,26 to 50%,51 to 75%,51 to 75%,51 to 75%,51 to 75%,
Cn1ccc(-c2sc3nc(-c4nccn4C)nc(N[C@H]4C[C@@H](O)C4)c3c2-c2ccccc2)n1 [drawing 1043],A (1-25% inhibition),C (51-75% inhibition),0%,0%,1 to 25%,1 to 25%,26 to 50%,26 to 50%,
CO[C@H]1CC[C@@H](Nc2nc(-c3nccn3C)nc3sc(-c4ccn(C(C)C)n4)c(C)c23)C1 [drawing 1054],D (76-100% inhibition),C (51-75% inhibition),51 to 75%,51 to 75%,51 to 75%,51 to 75%,76 to 100%,76 to 100%,
